According to patent EP1180991B1, “GAMBOGIC ACID DERIVATIVES AS ACTIVATORS OF CASPASES AND INDUCERS OF APOPTOSIS” (Cytovia, Inc., priority 1999, dated 2000):

Key:
[1] = tested on: PC3 cells; assay: PARP cleavage, western blot (Example 98); assay type: cell-based, human
Protocol: (§1) Cleavage of the enzyme poly(ADP)ribose polymerase (PARP) by caspase-3 and related proteases is considered to be one of the molecular hallmarks of caspase-mediated apoptosis. Therefore, the ability of gambogic acid to induce PARP cleavage in four different human tumor cell lines (Jurkat cells, HL-60 cells, T47D cells and PC3 cells) was determined.
(§2) […] Control cultures were treated with a drug vehicle (DMSO), or the well-characterized apoptosis inducer, staurosporine. At the end of the apoptosis induction period, the cells were harvested, washed once with PBS, quick-frozen on dry ice, and stored at -80° C. The cells were then lysed in a standard immunoblotting lysis buffer and samples of the lysates were electrophoresed on 4% to 20% gradient polyacrylamide gels. The proteins in the gels were then transferred to PVDF membranes and probed with a commercially-available rabbit polyclonal antibody to PARP.

[2] = tested on: T47D cells; assay: PARP cleavage, western blot (Example 98); assay type: cell-based, human
Protocol: as §1, §2

[3] = tested on: A-549; assay: Caspase activity with and without caspase inhibitor (Example 97); assay type: cell-based, human; parameters: key to Inhibition of caspase activity by Inhibitor: The caspase activity detected was inhibited by the caspase inhibitor (+)
Protocol: (§3) T47D, ZR-75, PC3, SHP-77 and A-549 cells were maintained and harvested as described in Example 90. Cells were added to 96-well plates as described in Example 90. The cells were treated with 10 µM gambogic acid, in the presence and in the absence of 10 µM caspase inhibitor cbz-Val-Asp-fink (Cytovia, Inc.; WO99/18781). The plate was incubated up to 24 h at 37° C in a 5% CO2-95% humidity incubator. Caspase activity was determined by addition of a fluorogenic substrate as described in Example 90.
(§4) Gambogic acid induced caspase activity in a ratio of greater than 2.5 (+) above untreated cell levels in all the tested cancer cell lines (Table IV). The caspase activity detected was inhibited by the caspase inhibitor (+), confirming that the fluorescent signal was due to caspase activity. Table IV. Gambogic Acid as Caspase Inducers in Solid Tumor Cells

[4] = tested on: SHP-77; assay: as above; assay type: cell-based, human; parameters: key to Inhibition of caspase activity by Inhibitor: The caspase activity detected was inhibited by the caspase inhibitor (+)
Protocol: as §3, §4

[5] = tested on: T47D; assay: as above; assay type: cell-based, human; parameters: key to Inhibition of caspase activity by Inhibitor: The caspase activity detected was inhibited by the caspase inhibitor (+)
Protocol: as §3, §4

[6] = tested on: ZR-75; assay: as above; assay type: cell-based, human; parameters: key to Inhibition of caspase activity by Inhibitor: The caspase activity detected was inhibited by the caspase inhibitor (+)
Protocol: as §3, §4

[7] = tested on: PC-3; assay: as above; assay type: cell-based, human; parameters: key to Inhibition of caspase activity by Inhibitor: The caspase activity detected was inhibited by the caspase inhibitor (+)
Protocol: as §3, §4

[8] = Inhibition of cell proliferation (GI50) and cell death (LC50), CellTiter 96 (Example 91); assay type: cell-based, human; conditions: human, mrc-5 cells; MRC-5 non-transformed fibroblasts; 48 h; dose for 50% cell death
Protocol: (§5) T-47D, ZR-75-1, PC-3, human prostate cancer cell line DU-145, human non-small cell lung cancer cell line A-549, human small cell lung cancer cell line SHP-77, HL-60 and MRC-5 cells were grown and harvested as in Example 90. […] The samples were mixed by agitation and incubated at 37° C for 2-4 h in a 5% CO2-95% humidity incubator. […] This determines the possible background absorbance of the test compounds. No absorbance for gambogic acid or its analogs or derivatives was found at 490 nm. After the 2-4 h incubation, the samples were read for absorbance as above (ATest).
(§6) The samples were mixed by agitation and incubated at 37° C for 2-4 h in a 5% CO2-95% humidity incubator. Absorbance was read as above, (AT=0) defining absorbance for initial cell number used as baseline in GI50 determinations and (Amin) defining absorbance for media alone used as baseline in LC50 determinations.
(§7) GI50 (dose for50%inhibition of cell proliferation) 50 = 100 x [(ATest-AT = 0)/(Amax-AT = 0)] [formula] LC50 (dose for50%cell death) 50 = 100 x [(ATest-Amin)/(AT = 0-Amin)] [formula]

[9] = tested on: MRC-5; assay: as above; assay type: cell-based, human; conditions: Homo sapiens, MRC5; MRC-5 non-transformed fibroblasts; 48 h; dose for 50% inhibition of cell proliferation; read-out: GI50
Protocol: as §5, §6, §7

[10] = tested on: T47D cells; assay: Dose response of caspase activation, cancer cells versus normal fibroblasts (Example 96); assay type: cell-based, human; conditions: T47D versus MRC-5; 2 h dose response (Fig. 4)
Protocol: T47D cells and MRC-5 cells were maintained and harvested as described in Example 90. […] To determine the dose response of gambogic acid for inducing caspase activity, 5 µl of 20 µM gambogic acid in RPMI media was added to wells in triplicates. Two-fold serial dilutions were made for the lower concentrations. After incubation for 2 h, the samples were removed from the 5% CO2-95% humidity incubator and caspase activity was determined by addition of a fluorogenic substrate as described in Example 90.

[11] = tested on: Jurkat T leukemia cells; assay: Apoptotic morphology, phase-contrast microscope (Example 95); assay type: cell-based, human; conditions: 10 µM
Protocol: Jurkat T leukemia cells were grown in RPMI 1640 media (Life Technologies, Inc.) + 10% FCS (Sigma Chemical Company) in a 5% CO2-95% humidity incubator at 37° C, and maintained at a cell density between 4 and 8 x 10^5 cells/ml. Cells were harvested at 200xg and resuspended at 1-2 x 10^6 cells/ml into RPMI 1640 media + 10% FCS, and 3 ml of the cells was dispensed in each of three wells of a 6-well plate. One of the wells was treated with 10 µM caspase inhibitor cbz-Val-Asp-fink (Cytovia, Inc.; WO99/18781) and the plate was incubated at 37° C in a 5% CO2-95% humidity incubator for 1 h prior to addition of gambogic acid. The wells with and without the caspase inhibitor were treated with 10 µM gambogic acid. The third well was treated with solvent (control cells). The plate was incubated at 37° C in a 5% CO2-95% humidity incubator.
At 30 min. after addition of gambogic acid an aliquot of cells from each well was taken into the capillary slides and observed under a phase-contrast microscope.

[12] = tested on: HeLa; conditions: Asano et al. 1996; cited from earlier work
[13] = tested on: KB; conditions: Lin et al. 1993; cited from earlier work
[14] = 10 µM plus 10 µM caspase inhibitor cbz-Val-Asp-fink
[15] = Homo sapiens, 10 µM, up to 24 h

Which results are given for `CC(C)=CCC[C@]1(C)C=Cc2c(O)c3c(c(CC=C(C)C)c2O1)O[C@]12C(=C[C@@H]4C[C@H]1C(C)(C)O[C@@]2(C/C=C(/C)C(=O)O)C4=O)C3=O` [Example 1, Gambogic Acid]?
PARP cleavage ([1]; 2.5 µM and 5 µM, 2 h (Fig. 5D)): neither concentration (2.5 µM and 5 µM) of drug was effective; PARP cleavage ([1]; 5 µM, 4 h (Fig. 5D)): a moderate amount of PARP cleavage product; PARP cleavage ([2]; 2.5 µM and 5 µM, 4 h (Fig. 5C)): almost complete PARP cleavage; PARP cleavage ([2]; 2.5 µM, 2 h (Fig. 5C)): moderate induction of PARP cleavage; PARP cleavage ([2]; 5 µM, 2 h (Fig. 5C)): almost complete PARP cleavage; Inhibition of caspase activity by Inhibitor [3, 14]: +; fold induction at 10 µM ([3]; Homo sapiens, A549, 10 µM, up to 24 h): > 2.5; Inhibition of caspase activity by Inhibitor [4, 14]: +; fold induction at 10 µM ([4]; Homo sapiens, SHP77, 10 µM, up to 24 h): > 2.5; Inhibition of caspase activity by Inhibitor [5, 14]: +; fold induction at 10 µM [5, 15]: > 2.5; Inhibition of caspase activity by Inhibitor [6, 14]: +; fold induction at 10 µM ([6]; Homo sapiens, ZR75, 10 µM, up to 24 h): > 2.5; Inhibition of caspase activity by Inhibitor [7, 14]: +; fold induction at 10 µM [7, 15]: > 2.5; CC50 at 48 h [8]: 500 nM; GI50 [9]: 400 nM; sensitivity to induction of caspase activity [10]: more sensitive to induction of caspase activity than a normal fibroblast cell line MRC-5; apoptotic morphology ([11]; 30 min (Fig. 3B)): blebbing and cellular fragmentation; apoptotic morphology in the presence of caspase inhibitor ([11]; 30 min, with 10 µM caspase inhibitor cbz-Val-Asp-fink (Fig. 3C)): prevented the morphological changes; cytotoxicity [12]: cytotoxic; cytotoxicity [13]: cytotoxic
